Results on one compound are retold here after patent publication US7906491B2 (Univisitair Medisch Centrum Utrecht, priority 2002, dated 2011).

For test [1], the system named is INS-1 insulin-secreting cells. The conditions noted are these: cited from earlier work.
Test [2] deals with T1, Epac1-ΔDEP1 (Homo sapiens, UniProt O95398).
T1 sequence (O95398 191-923 limits assumed): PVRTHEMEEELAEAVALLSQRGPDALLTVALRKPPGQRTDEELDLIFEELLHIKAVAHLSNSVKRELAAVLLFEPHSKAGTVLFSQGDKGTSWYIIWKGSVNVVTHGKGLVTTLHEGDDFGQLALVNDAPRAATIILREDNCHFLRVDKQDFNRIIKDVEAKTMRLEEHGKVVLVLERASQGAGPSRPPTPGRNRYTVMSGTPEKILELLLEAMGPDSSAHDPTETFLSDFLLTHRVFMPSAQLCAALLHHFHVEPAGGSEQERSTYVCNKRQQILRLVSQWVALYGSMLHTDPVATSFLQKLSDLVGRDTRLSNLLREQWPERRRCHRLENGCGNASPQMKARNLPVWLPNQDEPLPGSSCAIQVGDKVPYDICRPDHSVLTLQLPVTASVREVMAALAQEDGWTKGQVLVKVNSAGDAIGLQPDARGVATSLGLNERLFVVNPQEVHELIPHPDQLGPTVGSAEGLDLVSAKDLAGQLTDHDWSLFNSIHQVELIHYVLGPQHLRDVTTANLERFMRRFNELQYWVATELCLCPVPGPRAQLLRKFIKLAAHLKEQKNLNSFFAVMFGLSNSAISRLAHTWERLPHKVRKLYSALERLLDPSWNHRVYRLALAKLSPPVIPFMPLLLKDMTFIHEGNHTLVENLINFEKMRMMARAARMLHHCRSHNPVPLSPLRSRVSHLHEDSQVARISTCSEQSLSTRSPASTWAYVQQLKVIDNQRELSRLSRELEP
Description: In vitro GEF assay: Epac activity in the exchange reaction towards Rap (mantGDP-loaded Rap1b). For Relative activity of Epac*: key: +++: activity comparible to I-007; ++: activity between I-007 and cAMP; +: activity comparible to cAMP; ±: activity less than cAMP. The format is biochemical. How it is done: In vitro GEF assays were performed as described (3,16). […] Buffer conditions were 50 mM Tris pH7.4, 150 mM NaCl, 5% glycerol, 5 mM DTE, 60 μM GTP. Reactions were carried out in 96-well plates and measured in a Cary Eclipse from Varian Inc., using the manufacturers software.

Test [3] relates to type II holoenzyme of PKA (PKAII). Description: In vitro activation of cAMP-dependent protein kinase, type II holoenzyme (kemptide substrate). Conditions: compared to cAMP, FIG. 5. The format is biochemical. How it is done:
Cyclic AMP dependent protein kinase I and II were reconstituted from isolated subunits and assayed for kinase activity using […] kemptide as substrate, as described previously (15).

Test [4] deals with extracellular signal-regulated kinase (ERK). Description: ERK activation / inactivation in vivo (cells). The format is cell-based.
Test [5] has as its system PKAI. Kind of test: Relative affinity for PKAI (cAMP = 1), in vitro. The conditions noted are these: relative to cAMP = 1. It counts as binding.
Test [6] has as its system Ovcar3 cells. Description: Adhesion of Ovcar3 cells to poly-L-lysine (integrin-independent). The conditions noted are these: FIG. 8. It counts as cell-based. The procedure: Upper panel: a βl integrin-blocking peptide containing the RGD sequence present in fibronectin inhibits 8-pCPT-2′-O-Me-cAMP-induced cell adhesion. Ovcar3 cells were pre-treated for 20 minutes with RGD-peptide (100 μM) where indicated, and seeded in wells with or without 8-pCPT-2′-O-Me-cAMP. Cells were allowed to adhere for 1 h. […] Ovcar3 cells were seeded onto poly-L-lysine-coated plates. At various time points, adherent cells were quantified.
24-well plates were coated overnight with 2 μg/ml fibronectin (Sigma, St. Louis, Mo., USA) in sodium bicarbonate buffer (Sigma, St. Louis, Mo., USA). […] Cells were centrifuged, counted and resuspended at 3×10^5 cells/ml in serum-free RPMI with 0.5% BSA. […] Adherent cells were lysed in luciferase lysis buffer (15% glycerol, 25 mM Tris-phosphate pH 7.8, 1% Triton X-100, 8 mM MgCl2, 1 mM DTT) at 4° C. for 30 min and units of luciferase activity were quantified with addition of equal volume of luciferase assay buffer (25 mM Tris-phosphate pH 7.8, 8 MM MgCl2, 1 mM DTT, 1 mM ATP pH 7, 1 mM luciferin) using a luminometer (Lumat LB9507; Berthold Technologies, Belgium). […] Specific adhesion (%) was determined (counts in cells bound/counts in total input×100) and plotted either directly or relative to the basal adhesion of HA vector-transfected cells. […]

Consider `CO[C@@H]1[C@@H]2OP(=O)(O)OC[C@H]2O[C@H]1n1c(Sc2ccc(Cl)cc2)nc2c(N)ncnc21` [Compound I-007, 8-(4-chloro-phenylthio)-2′-O-methyladenosine-3′,5′-cyclic monophosphate], for which, in test [1], the exocytosis entry is “induces exocytosis” and the “mobilization of Ca2+ from intracellular Ca2+ stores via Epac-mediated CICR” value is on record as “can induce mobilization of Ca^2+”. The “maximal activity of Epac1 compared to cAMP” value in test [2] (in vitro) is on record as “three-fold higher”. Further, the “Relative activity of Epac*” value in test [2] (in vitro in the exchange reaction towards Rap) is “+++”. The EC50 in test [2] (in vitro, FIG. 4, read-out: Half-maximal activation of Epac1) was determined as 2.2 µM. Moreover, the “ability to activate the type II holoenzyme of PKA” value in test [3] is recorded as “greatly impaired”. Moreover, the “activation and inactivation of ERK” value in test [4] is “affected neither the activation nor the inactivation”. For the same compound, the “Relative affinity CAMP = 1 PKAI” value in test [5] worked out at 0.009. Moreover, the “integrin-independent adhesion to poly-L-lysine” value in test [6] is reported as “did not increase”.
